Results published in patent publication US8679478B2, “Methods of lysosomal storage disease therapy” (Duke University, priority 2010, dated 2014).

What was measured:
Type in all cases: in vivo, mouse
GAA-KO mice [1] = test: Weight gain, liver-targeted gene therapy plus clenbuterol; settings: vector plus clenbuterol v. mock treatment; p=0.06
Procedure: FIG. 4A-4B depicts enhanced Rotarod performance and weight gain following liver-targeted gene therapy plus clenbuterol treatment. The GAA-KO mice (5 per group) were injected with AAV-LSPhGAA (2×10^10 vector particles/mouse). Vector treated mice were treated with clenbuterol or untreated. Non-vector treated GAA-KO mice were treated with clenbuterol or untreated to serve as controls. Mice were euthanized for tissue analysis 4 weeks after vector injection. […] Mean+/−standard deviation are shown. Statistically significant differences indicated (*=p<0.05; **=p<0.01).
For in vivo analysis of AAV vectors, stocks were administered intravenously (via the retroorbital sinus) in 3 month-old and 15 month-old GAA-KO mice, and to 3 month-old tolerant GAA-KO and DKO mice. Clenbuterol (30 μg/ml) was administered to groups of 3 month-old vector-injected and mock-injected male GAA-KO mice in drinking water for 28 days. At the indicated time points post-injection, tissue samples were obtained and processed as described below. All animal procedures were done in accordance with Duke University Institutional Animal Care and Use Committee-approved guidelines. GAA activity and glycogen content were analyzed essentially as described (Sun et al., Mol. Ther., 2005, 11:889-898; Sun et al., Mol. Ther., 2005, 11: 57-65). Rotarod testing was performed essentially as described (Sun, B. D. et al. 2005). […]

GAA-KO mice [2] = test: Glycogen content in tissues, gene therapy plus clenbuterol; settings: vector plus clenbuterol v. vector alone
Procedure: FIG. 5A-5B depicts enhanced efficacy from liver-targeted gene therapy plus clenbuterol treatment. The GAA-KO mice were injected with AAV-LSPhGAA (2×10^10 vector particles/mouse) or uninjected (5 per group). Vector-treated mice were treated with AAV-LSPhGAA and clenbuterol or with AAV-LSPhGAA alone. Untreated (mock) GAA-KO mice were used as controls. Mice were euthanized for tissue analysis 4 weeks after vector injection. […] Statistically significant differences indicated (*=p<0.05; **=p<0.01).
(§1) For in vivo analysis of AAV vectors, stocks were administered intravenously (via the retroorbital sinus) in 3 month-old and 15 month-old GAA-KO mice, and to 3 month-old tolerant GAA-KO and DKO mice. Clenbuterol (30 μg/ml) was administered to groups of 3 month-old vector-injected and mock-injected male GAA-KO mice in drinking water for 28 days. At the indicated time points post-injection, tissue samples were obtained and processed as described below. All animal procedures were done in accordance with Duke University Institutional Animal Care and Use Committee-approved guidelines. GAA activity and glycogen content were analyzed essentially as described (Sun et al., Mol. Ther., 2005, 11:889-898; Sun et al., Mol. Ther., 2005, 11: 57-65). Rotarod testing was performed essentially as described (Sun, B. D. et al. 2005). Western blotting of hGAA was performed essentially as described (Amalfitano et al., Proc. Natl. Acad. Sci. USA, 1999, 96: 8861-8866) using the hGAA monoclonal antibody (courtesy of Genzyme Corp., Framingham, Mass.) and the CI-MPR antibody (catalog number GTX28093; Gene Tex, Irvine, Calif.).
Based upon the implication that CI-MPR expression was crucial to both uptake and intracellular processing of GAA in Pompe disease, levels of CI-MPR in GAA-KO mice were manipulated. A related but distinct strategy for addressing the apparently limiting role of CI-MPR expression in achieving efficacy with ERT in Pompe disease involved enhancement of rhGAA glycosylation (Raben et al., Mol. Genet. Metab., 2003, 80: 159-169; Raben et al., Transgenic Res., 2003, 12: 171-178; McVie-Wylie et al., Mol. Genet. Metab., 2008, 94: 448-455). […] The vector-transduced liver depot was enhanced by the addition of a drug, clenbuterol, which increases the expression of CI-MPR in muscle (Matsumoto et al., Arch. Oral Biol., 2006 51:603-611). The liver was transduced by administering AAV-LSPhGAA (2×10^10 vector particles) to groups of 3 month-old male GAA-KO mice, and clenbuterol (30 μg/ml) was administered to groups of 3 month-old vector-injected and mock-injected male GAA-KO mice in drinking water.

GAA-KO mice [3] = test: Weight gain, ERT plus clenbuterol; settings: ERT plus clenbuterol v. ERT alone; male mice; p<0.05 at weeks 1-3
Procedure: GAA-KO mice were administered four weekly doses of rhGAA (20 mg/kg), and treated with clenbuterol (n=5) or ERT alone (n=5). […] Mean+/−standard deviation are shown. Statistically significant differences indicated (*=p<0.05; **=p<0.01).
(§2) The efficacy from gene therapy was increased by β2 agonist stimulation from clenbuterol treatment, and this benefit might be expected to affect ERT in Pompe disease, as well. Therefore, groups of 3 month-old GAA-KO mice were treated with four weekly doses of rhGAA (20 mg/kg), with or without concurrent clenbuterol treatment.

GAA-KO mice [4] = test: GAA activity in tissues, ERT plus clenbuterol; settings: ERT plus clenbuterol v. ERT alone
Procedure: FIG. 8A-8C depicts increased GAA uptake and increased glycogen clearance in GAA-KO mice following clenbuterol treatment and ERT. […] GAA-KO mice were administered four weekly doses of rhGAA (20 mg/kg), and treated with clenbuterol (n=6) or untreated (n=5). […] Mean+/−standard deviation are shown. Statistically significant differences indicated (*=p<0.05; **=p<0.01).
as §1, §2

[5] = test system: immune tolerant GAA-KO mice; test: Weight of gastrocnemius, ERT plus β2 agonist; settings: clenbuterol plus ERT v. ERT alone or albuterol plus ERT
Procedure: GAA-KO mice were administered four weekly doses of rhGAA (20 mg/kg), and treated with medium dose clenbuterol (n=7), albuterol (n=4) or untreated (n=6 or 3). […] Mean+/−standard deviation are shown. P values indicate statistically significant differences (lines).
Two β2 agonists were evaluated in combination with ERT, clenbuterol and albuterol. The dose of clenbuterol was reduced 5-fold from the concentration used in Example 4, to 6 mg/l in drinking water, while albuterol was evaluated at the higher dose (30 mg/l in drinking water). Groups of 3 month-old immune tolerant GAA-KO mice (Raben et al., Human Mol. Genet., 2001, 10:2039-2047) were treated with four weekly doses of rhGAA (20 mg/kg body weight), with or without concurrent β2 agonist treatment.
Mice were sacrificed 7 days after the last injection. Selected tissues were collected for GAA enzyme activity and glycogen content analyses. […] GAA activity and glycogen content analyses, Rotarod testing, and Western blot detection of CI-MPR was performed essentially as described (Koeberl et al., Mol. Genet. Metab., 2011, 103:107-112. Wire hang testing was performed with a 0.5 cm mesh hardware cloth fixed to an 8 by 10 inch frame. Mice were placed on the wire mesh, which was slowly inverted 6 inches over a cage containing paper bedding. The latency, or time until the mouse fell into the cage, was recorded.

[6] = test system: immune tolerant GAA-KO mice; test: Histopathology of brain, glycogen staining; settings: cerebellum; in comparison with ERT alone
Procedure: Histopathology was performed to examine brain involvement, and glycogen accumulations were detected in the cerebellum with ERT alone. Albuterol and clenbuterol each reduced the glycogen staining in the cerebellum, in comparison with ERT alone.

Structure (SMILES): CC(C)(C)NCC(O)c1cc(Cl)c(N)c(Cl)c1 (stereo not drawn) [clenbuterol]
- weight gain (GAA-KO mice [1]): trend toward greater weight gain
- Glycogen content (GAA-KO mice [2]; EDL, p=0.002): reduced
- Glycogen content (GAA-KO mice [2]; cerebellum, p=0.03): reduced
- Glycogen content (GAA-KO mice [2]; cerebrum, p<5×10^−5): reduced
- Glycogen content (GAA-KO mice [2]; diaphragm, p=0.04): reduced
- Glycogen content (GAA-KO mice [2]; soleus, p=0.0006): reduced
- weight gain (GAA-KO mice [3]): increased weight gain
- GAA activity (GAA-KO mice [4]; gastrocnemius, p=0.04): significantly increased
- GAA activity (GAA-KO mice [4]; liver, p<0.0001): significantly increased
- GAA activity (GAA-KO mice [4]; spleen, p=0.002): significantly increased
- weight of the gastrocnemius [5]: increased
- glycogen staining (histopathology) [6]: reduced
